Results as given in PubChem BioAssay AID330 (DTP/NCI, 2004).
Several values for one entry are separate records, joined by “and”; a condition that tells them apart may be missing. Equal values may be shown once. Inconclusive results and toxic doses are left out.

System: P388 leukemia ip, CD2F1 mice, survival T/C
Assay: NCI In Vivo Anticancer Drug Screen. Data for tumor model P388 Leukemia (intraperitoneal) in CD2F1 (CDF1) mice
Conditions: endpoint: median survival time, higher = longer survival
In short: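 Mice carrying the transplanted tumor received test compound or vehicle. Survival was recorded in each group, and the value is the treated-group measurement divided by that of the vehicle-treated control group.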

[1] = dose: 60.0 mg/kg/injection, schedule: Q01DX005 (ip), vehicle: saline with Tween-80
[2] = dose: 120.0 mg/kg/injection, schedule: Q01DX005 (ip), vehicle: saline with Tween-80
[3] = dose: 240.0 mg/kg/injection, schedule: Q01DX005 (ip), vehicle: saline with Tween-80
[4] = dose: 50.0 mg/kg/injection, schedule: Q01DX009 (ip), vehicle: saline with Tween-80
[5] = dose: 100.0 mg/kg/injection, schedule: Q01DX009 (ip), vehicle: saline with Tween-80
[6] = dose: 2.0 mg/kg/injection, schedule: Q01DX009 (ip), vehicle: saline
[7] = dose: 12.5 mg/kg/injection, schedule: Q01DX009 (ip), vehicle: saline with Tween-80
[8] = dose: 25.0 mg/kg/injection, schedule: Q04DX003 (ip), vehicle: saline with Tween-80
[9] = dose: 50.0 mg/kg/injection, schedule: Q04DX003 (ip), vehicle: saline with Tween-80
[10] = dose: 50.0 mg/kg/injection, schedule: Q01DX005 (ip), vehicle: Klucel (hydroxypropylcellulose) (HPC)
[11] = dose: 100.0 mg/kg/injection, schedule: Q01DX005 (ip), vehicle: Klucel (hydroxypropylcellulose) (HPC)
[12] = dose: 200.0 mg/kg/injection, schedule: Q01DX005 (ip), vehicle: Klucel (hydroxypropylcellulose) (HPC)

SMILES: COc1ccc(C(c2cc3c(cc2O)OCO3)N2CCN(C(c3ccc(OC)cc3)c3cc4c(cc3O)OCO4)CC2)cc1 (configuration not stated)
- T/C [1]: 87 % of control
- T/C [2]: 92 % of control
- T/C [3]: 87 % of control

SMILES: O=C(O)/C=C\C(=O)Nc1ccccc1NC(=O)/C=C/C(=O)O
- T/C (dose: 100.0 mg/kg/injection, schedule: Q04DX003 (ip), vehicle: saline): 91 % of control
- T/C (dose: 200.0 mg/kg/injection, schedule: Q04DX003 (ip), vehicle: saline): 100 % of control
- T/C (dose: 400.0 mg/kg/injection, schedule: Q04DX003 (ip), vehicle: saline): 87 % of control

SMILES: CC1(C)NC(=S)N(O)C1(C)C
- T/C (dose: 50.0 mg/kg/injection, schedule: Q01DX009 (ip), vehicle: saline): 111 % of control
- T/C (dose: 100.0 mg/kg/injection, schedule: Q01DX009 (ip), vehicle: saline): 98 % of control

SMILES: CN(C)C(=S)SC1OC(CO)C(OC2OC(CO)C(O)C(O)C2O)C(O)C1O (configuration not stated)
- T/C [4]: 93 % of control
- T/C [5]: 90 % of control
- T/C (dose: 200.0 mg/kg/injection, schedule: Q01DX009 (ip), vehicle: saline with Tween-80): 88 % of control

SMILES: CCNC1CC(C)(O)Cc2cc3c(c(O)c21)C(=O)c1c(O)cc2c(c1C3=O)OC1OC2(C)C(O)C(N(C)C)C1O (configuration not stated)
- T/C (dose: 6.25 mg/kg/injection, schedule: Q01DX009 (ip), vehicle: other): 123 % of control
- T/C (dose: 25.0 mg/kg/injection, schedule: Q01DX009 (ip), vehicle: other): 154 % of control
- T/C (dose: 50.0 mg/kg/injection, schedule: Q01DX009 (ip), vehicle: other): 120 % of control

SMILES: CC(=O)OC1C2OC3C=C(C)CCC3(CO)C(C)(C1OC(C)=O)C21CO1 (configuration not stated)
- T/C (dose: 0.5 mg/kg/injection, schedule: Q01DX009 (ip), vehicle: saline): 108 % of control
- T/C (dose: 1.0 mg/kg/injection, schedule: Q01DX009 (ip), vehicle: saline): 100 % of control
- T/C [6]: 106 % of control

SMILES: CCC(C)C1SCC(=O)N1c1nncs1 (configuration not stated)
- T/C [1]: 104 % of control
- T/C [2]: 100 % of control
- T/C [3]: 107 % of control

SMILES: FC(F)(F)c1ccc2c(c1)N=C(NNC1=Nc3cc(C(F)(F)F)ccc3SC1)CS2
- T/C (dose: 15.0 mg/kg/injection, schedule: Q01DX005 (ip), vehicle: saline with Tween-80): 91 % of control
- T/C (dose: 30.0 mg/kg/injection, schedule: Q01DX005 (ip), vehicle: saline with Tween-80): 86 % of control

SMILES: NC(=S)N/N=C\c1ncnc2ccccc12
- T/C (dose: 1.0 mg/kg/injection, schedule: Q01DX009 (ip), vehicle: saline with Tween-80): 104 % of control
- T/C (dose: 2.0 mg/kg/injection, schedule: Q01DX009 (ip), vehicle: saline with Tween-80): 118 % of control
- T/C (dose: 4.0 mg/kg/injection, schedule: Q01DX009 (ip), vehicle: saline with Tween-80): 100 % of control
- T/C (dose: 12.0 mg/kg/injection, schedule: Q01DX009 (ip), vehicle: saline with Tween-80): 154 % of control
- T/C [7]: 150 % of control
- T/C (dose: 12.5 mg/kg/injection, schedule: Q04DX003 (ip), vehicle: saline with Tween-80): 112 % of control
- T/C (dose: 18.0 mg/kg/injection, schedule: Q01DX009 (ip), vehicle: saline with Tween-80): 172 % of control
- T/C [8]: 116 % of control
- T/C [9]: 120 % of control

SMILES: CC(=O)N/N=C/C(C)(C)C(C)(C)/C=N/NC(C)=O
- T/C (dose: 120.0 mg/kg/injection, schedule: Q01DX005 (ip), vehicle: Klucel (hydroxypropylcellulose) (HPC)): 153 % of control

SMILES: CNCCCCCc1cc(-c2ccc([N+](=O)[O-])cc2)n[nH]1
- T/C [8]: 103 % of control
- T/C [9]: 103 % of control
- T/C (dose: 100.0 mg/kg/injection, schedule: Q04DX003 (ip), vehicle: saline with Tween-80): 100 % of control and 94 % of control

SMILES: BrCCCCOCBr
- T/C (dose: 60.0 mg/kg/injection, schedule: Q01DX005 (ip), vehicle: saline): 95 % of control
- T/C (dose: 120.0 mg/kg/injection, schedule: Q01DX005 (ip), vehicle: saline): 95 % of control
- T/C (dose: 240.0 mg/kg/injection, schedule: Q01DX005 (ip), vehicle: saline): 86 % of control

SMILES: NC(=O)c1cc(C(N)=O)n(C2OC(CO)C(O)C2O)n1 (configuration not stated)
- T/C (dose: 30.0 mg/kg/injection, schedule: Q04DX002 (ip), vehicle: saline): 98 % of control and 99 % of control
- T/C (dose: 60.0 mg/kg/injection, schedule: Q04DX002 (ip), vehicle: saline): 104 % of control and 93 % of control
- T/C (dose: 120.0 mg/kg/injection, schedule: Q04DX002 (ip), vehicle: saline): 98 % of control and 93 % of control

SMILES: CC(C)(C)C1C=Nn2c(=O)n(-c3ccccc3)c(=O)n21 (configuration not stated)
- T/C (dose: 25.0 mg/kg/injection, schedule: Q04DX003 (ip), vehicle: other): 91 % of control
- T/C (dose: 100.0 mg/kg/injection, schedule: Q04DX003 (ip), vehicle: other): 94 % of control
- T/C (dose: 200.0 mg/kg/injection, schedule: Q04DX003 (ip), vehicle: other): 98 % of control
- T/C (dose: 400.0 mg/kg/injection, schedule: Q04DX003 (ip), vehicle: other): 100 % of control

SMILES: COC(=O)Nc1nc2ccc(C(=O)c3ccc(F)cc3)cc2[nH]1
- T/C [7]: 120 % of control
- T/C [4]: 180 % of control
- T/C [5]: 217 % of control and 236 % of control

SMILES: COS(=O)(=O)OC1(SC)C=C(c2ccccc2)SS1 (configuration not stated)
- T/C (dose: 12.5 mg/kg/injection, schedule: Q01DX001 (ip), vehicle: saline): 96 % of control
- T/C (dose: 25.0 mg/kg/injection, schedule: Q01DX001 (ip), vehicle: saline): 109 % of control and 121 % of control
- T/C (dose: 50.0 mg/kg/injection, schedule: Q01DX001 (ip), vehicle: saline): 118 % of control and 122 % of control

SMILES: C1CCC2(CC1)C[Se]C2
- T/C (dose: 7.5 mg/kg/injection, schedule: Q01DX009 (ip), vehicle: saline with Tween-80): 108 % of control
- T/C (dose: 15.0 mg/kg/injection, schedule: Q01DX009 (ip), vehicle: saline with Tween-80): 113 % of control
- T/C (dose: 30.0 mg/kg/injection, schedule: Q01DX009 (ip), vehicle: saline with Tween-80): 105 % of control

SMILES: CN(C)C1c2cc3ccccc3nc2-c2ccccc2C1(C)C (configuration not stated)
- T/C (dose: 12.5 mg/kg/injection, schedule: Q01DX005 (ip), vehicle: saline with Tween-80): 95 % of control
- T/C (dose: 25.0 mg/kg/injection, schedule: Q01DX005 (ip), vehicle: saline with Tween-80): 95 % of control
- T/C (dose: 50.0 mg/kg/injection, schedule: Q01DX005 (ip), vehicle: saline with Tween-80): 100 % of control and 101 % of control
- T/C (dose: 200.0 mg/kg/injection, schedule: Q01DX005 (ip), vehicle: saline with Tween-80): 97 % of control

SMILES: Cc1ccc(S(=O)(=O)NC(=O)NC(=S)c2ccco2)cc1
- T/C (dose: 100.0 mg/kg/injection, schedule: Q01DX001 (ip), vehicle: saline with Tween-80): 101 % of control
- T/C (dose: 200.0 mg/kg/injection, schedule: Q01DX001 (ip), vehicle: saline with Tween-80): 97 % of control
- T/C (dose: 400.0 mg/kg/injection, schedule: Q01DX001 (ip), vehicle: saline with Tween-80): 102 % of control

SMILES: CC(=O)NCCCC(=O)O
- T/C (dose: 200.0 mg/kg/injection, schedule: Q01DX009 (ip), vehicle: saline): 98 % of control

SMILES: CCOc1ccc(Nc2ncnc3nc[nH]c23)cc1CN(CCCl)CCCl
- T/C (dose: 0.88 mg/kg/injection, schedule: Q01DX009 (ip), vehicle: saline): 154 % of control
- T/C [6]: 159 % of control
- T/C (dose: 3.0 mg/kg/injection, schedule: Q01DX009 (ip), vehicle: saline): 122 % of control

SMILES: CC12CC3(C)C(Br)C3CC1O2 (configuration not stated)
- T/C (dose: 44.5 mg/kg/injection, schedule: Q01DX005 (ip), vehicle: saline with Tween-80): 97 % of control
- T/C (dose: 89.0 mg/kg/injection, schedule: Q01DX005 (ip), vehicle: saline with Tween-80): 99 % of control
- T/C (dose: 178.0 mg/kg/injection, schedule: Q01DX005 (ip), vehicle: saline with Tween-80): 99 % of control

SMILES: COc1ccc(/C=N\Nc2cc(C)nc3ccc(C4CCCCC4)cc23)c2ccccc12
- T/C [1]: 99 % of control
- T/C [2]: 104 % of control
- T/C [3]: 93 % of control

SMILES: Cc1ccc(S(=O)(=O)NC(CN(CC(=O)O)N=O)C(=O)O)cc1 (configuration not stated)
- T/C [10]: 97 % of control
- T/C [11]: 96 % of control
- T/C [12]: 98 % of control

SMILES: CCCCC1SC2=NCCN2C1(O)c1ccc(Cl)cc1 (configuration not stated)
- T/C [10]: 113 % of control
- T/C [11]: 109 % of control

SMILES: O=CC(C(=O)c1ccccc1[N+](=O)[O-])c1ccccc1 (configuration not stated)
- T/C [10]: 89 % of control
- T/C [11]: 104 % of control
- T/C [12]: 98 % of control

SMILES: CN(C(=O)C(=S)c1ccccc1)c1ccccc1
- T/C (dose: 100.0 mg/kg/injection, schedule: Q04DX002 (ip), vehicle: saline): 104 % of control
- T/C (dose: 200.0 mg/kg/injection, schedule: Q04DX002 (ip), vehicle: saline): 119 % of control
- T/C (dose: 400.0 mg/kg/injection, schedule: Q04DX002 (ip), vehicle: saline): 117 % of control
